Earlier results, collected in US20090156457A1, “METHODS AND MEANS FOR SCREENING FOR RHOMBOID ACTIVITY” (MEDICAL RESEARCH COUNCIL, priority 2004, published 2009).

System: Rhomboid

SMILES | Rhomboid activity
O=c1oc(Cl)c(Cl)c2ccccc12 [3,4-DCI] | inhibit Rhomboid activity
Cc1ccc(S(=O)(=O)N[C@@H](Cc2ccccc2)C(=O)CCl)cc1 [TPCK] | inhibit Rhomboid activity
